Like-named read-outs stand apart in the source and are kept apart here.

The text below walks through data of patent publication US11839610B2 (priority 2022, dated 2023).

The subject of the experiment is D614G S protein pseudovirus (nCoV-S-Luc-D614G) in ACE2-293T cells. It is filed as cell-based, SARS-CoV-2.

Consider `COc1cc2c3cc1Oc1c4c(cc5c1[C@H](Cc1ccc(cc1)Oc1cc(ccc1O)C[C@H]3N(C)CC2)N(C)CC5)OCO4` [Cepharanoline], for which the “Levels of viral infection, D614G, Ave.” value reads like this: (Conc. 0.1 μM) 72.97%; (Conc. 1 μM) 39.14%; (Conc. 10 μM) −20.02%. The IC50 (read-out: 50% inhibitory concentrations (IC50) for viral infection, D614G) worked out at 480 ± 90 nM.
